Assay results as given in ChEMBL document CHEMBL1944566, “Conjugation of cell-penetrating peptides leads to identification of anti-HIV peptides from matrix proteins” (Bioorg Med Chem, 2012).
Active and inactive are the calls of the source. The calls are words filed in the database; no cut-off is given here. Where a SMILES comes first, the peptide text is derived from it. The star is where a group is joined. Cam = NC(=O)C*

Tests used:
[1] = test system: Human immunodeficiency virus 1; assay: Antiviral activity against R5 tropic HIV1 NL(AD8) in PM1/CCR5 cells assessed as protection from virus-induced cytopathogenicity after 5 days by MTT assay; format: functional, organism-based; conditions: Human immunodeficiency virus 1, NL(AD8), PM1/CCR5, 120 h
[2] = test system: Human immunodeficiency virus 1; assay: Antiviral activity against R5 tropic HIV1 JR-CSF in PM1/CCR5 cells assessed as protection from virus-induced cytopathogenicity measuring capsid p24 level after 5 days by ELISA; format: functional, cell-based; conditions: Human immunodeficiency virus 1, JRCSF ISOLATE, PM1/CCR5, 120 h
[3] = Cytotoxicity against human MT4 cells after 5 days by MTT assay; format: cell-based
[4] = test system: Human immunodeficiency virus 1; assay: Antiviral activity against X4 tropic HIV1 NL4-3 in MT4 cells assessed as protection from virus-induced cytopathogenicity after 5 days by MTT assay; format: functional, organism-based; conditions: Human immunodeficiency virus 1, NL4-3, MT4, 120 h
[5] = Solubility in PBS buffer; format: physicochemical
[6] = test system: Human immunodeficiency virus 1; assay: Antiviral activity against X4 tropic HIV1 NL4-3 in MT4 cells assessed as protection from virus-induced cytopathogenicity at 12.5 uM after 5 days by MTT assay; format: functional, organism-based
[7] = test system: Human immunodeficiency virus 1; assay: Antiviral activity against X4 tropic HIV1 NL4-3 in MT4 cells assessed as protection from virus-induced cytopathogenicity at 25 uM after 5 days by MTT assay; format: functional, organism-based
[8] = test system: Human immunodeficiency virus 1; assay: Antiviral activity against R5 tropic HIV1 NL(AD8) in PM1/CCR5 cells assessed as protection from virus-induced cytopathogenicity at 50 uM after 5 days by MTT assay; format: functional; conditions: Human immunodeficiency virus 1, NL(AD8), PM1/CCR5, 120 h
[9] = test system: Human immunodeficiency virus 1; assay: Antiviral activity against R5 tropic HIV1 NL(AD8) in PM1/CCR5 cells assessed as protection from virus-induced cytopathogenicity at 25 uM after 5 days by MTT assay; format: functional; conditions: Human immunodeficiency virus 1, NL(AD8), PM1/CCR5, 120 h

Row | Compound | EC50 [2] [µM] | CC50 at 120 h [3] [µM] | EC50 [4] [µM] | solubility [5] | also measured
1 | CC[C@H](C)[C@H](NC(=O)[C@H](CCCNC(=N)N)NC(=O)[C@H](CCC(N)=O)NC(=O)[C@H](Cc1cnc[nH]1)NC(=O)[C@@H](NC(=O)[C@H](CO)NC(=O)[C@H](Cc1ccc(O)cc1)NC(=O)[C@H](CC(C)C)NC(=O)[C@@H](NC(=O)[C@H](C)NC(=O)[C@@H](NC(=O)[C@@H](NC(C)=O)[C@@H](C)O)[C@@H](C)CC)C(C)C)C(C)C)C(=O)N[C@@H](CC(=O)O)C(=O)N[C@H](C(=O)N[C@@H](CCCCN)C(=O)NCC(=O)N[C@@H](CSCC(=O)N[C@@H](CCCNC(=N)N)C(=O)N[C@@H](CCCNC(=N)N)C(=O)N[C@@H](CCCNC(=N)N)C(=O)N[C@@H](CCCNC(=N)N)C(=O)N[C@@H](CCCNC(=N)N)C(=O)N[C@@H](CCCNC(=N)N)C(=O)N[C@@H](CCCNC(=N)N)C(=O)N[C@@H](CCCNC(=N)N)C(N)=O)C(N)=O)C(C)C | 0.58 | 5.7 | 2.1 | soluble | EC50 [1]: 0.43 µM
2 | CC[C@H](C)[C@H](NC(=O)[C@@H](NC(=O)[C@H](CC(N)=O)NC(=O)[C@H](Cc1ccc(O)cc1)NC(=O)[C@H](CC(C)C)NC(=O)[C@H](CO)NC(=O)[C@H](CCCNC(=N)N)NC(=O)[C@H](CC(C)C)NC(=O)[C@H](CCC(=O)O)NC(=O)[C@H](CCC(=O)O)NC(=O)[C@H](CO)NC(=O)CNC(C)=O)[C@@H](C)O)C(=O)N[C@@H](C)C(=O)N[C@H](C(=O)N[C@@H](CC(C)C)C(=O)NCC(=O)N[C@@H](CSCC(=O)N[C@@H](CCCNC(=N)N)C(=O)N[C@@H](CCCNC(=N)N)C(=O)N[C@@H](CCCNC(=N)N)C(=O)N[C@@H](CCCNC(=N)N)C(=O)N[C@@H](CCCNC(=N)N)C(=O)N[C@@H](CCCNC(=N)N)C(=O)N[C@@H](CCCNC(=N)N)C(=O)N[C@@H](CCCNC(=N)N)C(N)=O)C(N)=O)C(C)C | 7.8 | 9 | 2.3 | soluble | EC50 [1]: 5.8 µM
3 | CC[C@H](C)[C@H](NC(=O)[C@H](Cc1cnc[nH]1)NC(=O)[C@H](CCCCN)NC(=O)[C@H](CC(C)C)NC(C)=O)C(=O)N[C@H](C(=O)N[C@@H](Cc1c[nH]c2ccccc12)C(=O)N[C@@H](C)C(=O)N[C@@H](CO)C(=O)N[C@@H](CCCNC(=N)N)C(=O)N[C@@H](CCC(=O)O)C(=O)N[C@@H](CC(C)C)C(=O)N[C@@H](CCC(=O)O)C(=O)N[C@@H](CCCNC(=N)N)C(=O)N[C@@H](Cc1ccccc1)C(=O)N[C@@H](C)C(=O)NCC(=O)N[C@@H](CSCC(N)=O)C(N)=O)C(C)C (Ac-LKHIVWASRELERFAGC(Cam)-NH2) |  | 14 |  |  | inhibition [6]: inactive
4 | CC[C@H](C)[C@H](NC(=O)[C@H](Cc1cnc[nH]1)NC(=O)[C@H](CCCCN)NC(=O)[C@H](CC(C)C)NC(=O)[C@H](CCCCN)NC(=O)[C@H](Cc1ccc(O)cc1)NC(=O)[C@H](CCC(N)=O)NC(=O)[C@H](CCCCN)NC(=O)[C@H](CCCCN)NC(=O)CNC(=O)CNC(=O)[C@@H]1CCCN1C(=O)[C@H](CCCNC(=N)N)NC(=O)[C@H](CC(C)C)NC(C)=O)C(=O)N[C@H](C(=O)NCC(=O)N[C@@H](CSCC(=O)N[C@@H](CCCNC(=N)N)C(=O)N[C@@H](CCCNC(=N)N)C(=O)N[C@@H](CCCNC(=N)N)C(=O)N[C@@H](CCCNC(=N)N)C(=O)N[C@@H](CCCNC(=N)N)C(=O)N[C@@H](CCCNC(=N)N)C(=O)N[C@@H](CCCNC(=N)N)C(=O)N[C@@H](CCCNC(=N)N)C(N)=O)C(N)=O)C(C)C |  | 36 |  |  | inhibition [7]: inactive
5 | CC(=O)N[C@@H](CC(C)C)C(=O)N[C@@H](CCC(=O)O)C(=O)N[C@@H](CCCNC(=N)N)C(=O)N[C@@H](Cc1ccccc1)C(=O)N[C@@H](C)C(=O)N[C@H](C(=O)N[C@@H](CC(N)=O)C(=O)N1CCC[C@H]1C(=O)NCC(=O)N[C@@H](CC(C)C)C(=O)N[C@@H](CC(C)C)C(=O)N[C@@H](CCC(=O)O)C(=O)N[C@H](C(=O)N[C@@H](CO)C(=O)N[C@@H](CCC(=O)O)C(=O)NCC(=O)N[C@@H](CSCC(=O)N[C@@H](CCCNC(=N)N)C(=O)N[C@@H](CCCNC(=N)N)C(=O)N[C@@H](CCCNC(=N)N)C(=O)N[C@@H](CCCNC(=N)N)C(=O)N[C@@H](CCCNC(=N)N)C(=O)N[C@@H](CCCNC(=N)N)C(=O)N[C@@H](CCCNC(=N)N)C(=O)N[C@@H](CCCNC(=N)N)C(N)=O)C(N)=O)[C@@H](C)O)C(C)C | 42 | > 50 | 40 |  | inhibition at 50 µM [8]: 42%
6 | CC[C@H](C)[C@H](NC(=O)[C@H](CCCCN)NC(=O)[C@H](CC(=O)O)NC(=O)[C@H](CC(C)C)NC(C)=O)C(=O)N[C@@H](CCC(=O)O)C(=O)N[C@@H](CCC(=O)O)C(=O)N[C@@H](CCC(=O)O)C(=O)N[C@@H](CCC(N)=O)C(=O)N[C@@H](CC(N)=O)C(=O)N[C@@H](CCCCN)C(=O)N[C@@H](CO)C(=O)N[C@@H](CCCCN)C(=O)N[C@@H](CCCCN)C(=O)N[C@@H](CCCCN)C(=O)N[C@@H](C)C(=O)NCC(=O)N[C@@H](CSCC(=O)N[C@@H](CCCNC(=N)N)C(=O)N[C@@H](CCCNC(=N)N)C(=O)N[C@@H](CCCNC(=N)N)C(=O)N[C@@H](CCCNC(=N)N)C(=O)N[C@@H](CCCNC(=N)N)C(=O)N[C@@H](CCCNC(=N)N)C(=O)N[C@@H](CCCNC(=N)N)C(=O)N[C@@H](CCCNC(=N)N)C(N)=O)C(N)=O | 23 | > 50 | 18 |  | inhibition at 25 µM [9]: 17%
7 | CC(=O)N[C@@H](CC(=O)O)C(=O)N[C@H](C(=O)NCC(=O)N[C@@H](CC(N)=O)C(=O)N[C@@H](CC(N)=O)C(=O)N[C@@H](CO)C(=O)N[C@@H](CCC(N)=O)C(=O)N[C@H](C(=O)N[C@@H](CO)C(=O)N[C@@H](CCC(N)=O)C(=O)N[C@@H](CC(N)=O)C(=O)N[C@@H](Cc1ccc(O)cc1)C(=O)NCC(=O)N[C@@H](CS)C(N)=O)C(C)C)[C@@H](C)O |  |  |  | Insoluble | 
8 | CC[C@H](C)[C@H](NC(=O)[C@H](CCCCN)NC(=O)[C@H](CC(=O)O)NC(=O)[C@H](CC(C)C)NC(=O)[C@H](C)NC(=O)[C@H](CCC(=O)O)NC(=O)[C@H](CCCCN)NC(=O)[C@@H](NC(=O)[C@H](CC(=O)O)NC(=O)[C@H](CCCCN)NC(=O)[C@@H](NC(=O)[C@H](CC(=O)O)NC(=O)[C@@H](NC(=O)[C@H](CCCNC(=N)N)NC(C)=O)[C@@H](C)CC)C(C)C)[C@@H](C)O)C(=O)N[C@@H](CCC(=O)O)C(=O)NCC(=O)N[C@@H](CSCC(N)=O)C(N)=O |  | 17 |  |  | inhibition [6]: inactive
9 | CC[C@H](C)[C@H](NC(=O)[C@H](Cc1cnc[nH]1)NC(=O)[C@H](CCCCN)NC(=O)[C@H](CC(C)C)NC(=O)[C@H](CCCCN)NC(=O)[C@H](Cc1ccc(O)cc1)NC(=O)[C@H](CCC(N)=O)NC(=O)[C@H](CCC(=O)O)NC(=O)[C@H](Cc1c[nH]c2ccccc12)NC(=O)[C@H](CCCCN)NC(=O)[C@H](CC(=O)O)NC(=O)[C@H](CC(C)C)NC(=O)[C@H](CCC(=O)O)NC(=O)CNC(C)=O)C(=O)N[C@H](C(=O)NCC(=O)N[C@@H](CSCC(=O)N[C@@H](CCCNC(=N)N)C(=O)N[C@@H](CCCNC(=N)N)C(=O)N[C@@H](CCCNC(=N)N)C(=O)N[C@@H](CCCNC(=N)N)C(=O)N[C@@H](CCCNC(=N)N)C(=O)N[C@@H](CCCNC(=N)N)C(=O)N[C@@H](CCCNC(=N)N)C(=O)N[C@@H](CCCNC(=N)N)C(N)=O)C(N)=O)C(C)C |  | 36 |  |  | inhibition [7]: inactive
